Source: US5736548A, “6-aryl pyrazolo[3,4-D] pyrimidin-4-ones and compositions and method of use thereof” (Sanofi, priority 1997, dated 1998)
Several values for one entry are separate records, joined by “and”; a condition that tells them apart may be missing. Equal entries are not always repeated. Structures can show the parent of a compound that is named as a salt. Where two headings read alike, the source gives them in different places.

Biological target: cGMP-PDE V (Homo sapiens, UniProt O76074)
Assay: biochemical
Parameters: species or system various animal species and man
Settings: for IC50: values separated by / and marked * are separate experimental runs
Method: The cGMP-PDE and other PDE isozymes were isolated from cardiovascular tissues (heart and aorta) of various animal species and man by anion-exchange and affinity chromatography as described by Silver et al., Sec. Messeng. Phos. 13:13-25, 1991; PDE activity, in the presence and absence of test compounds was determined essentially as described by Thompson et al., Adv. Cyclic Nucleotide Res. 10:69-92. To determine the potency and selectivity of compounds as PDE inhibitors, compounds are screened for their effect on cyclic nucleotide hydrolysis at 10 μM. […] The IC50 values are calculated from concentration-response curves as described by Tallarida and Murray, Manual of Pharmacologic Calculations with Computer Programs, Procedure 8, Graded Dose-response, pp. 14-19, Springer-Verlag, New York, 1981.

[1] = 0.1 μM, read-out: Percent Inhibition cGMP-PDE V
[2] = 1 μM, read-out: Percent Inhibition cGMP-PDE V
[3] = read-out: Percent Inhibition cGMP-PDE V
[4] = 0.01 μM, read-out: Percent Inhibition cGMP-PDE V

Compound: 1-cyclopentyl-3-ethyl-6-[2-methyl-2,3-dihydrobenzo[b]furan-5-yl]pyrazolo[3,4-d]pyrimidin-4-one [Example 39]
- Percent Inhibition cGMP-PDE V (0.01 μM): 24%
- Percent Inhibition cGMP-PDE V (0.1 μM): 65%

Compound: CCc1nn(C2CCCC2)c2nc(-c3ccc(-n4ccnc4)cc3)[nH]c(=O)c12 [8 (b), 1-cyclopentyl-3-ethyl-6-[4-(1-imidazolyl)phenyl]pyrazole[3,4-d]pyrimidin-4-one]
- inhibition at 0.1 µM [1]: 32%
- inhibition at 1 µM [2]: 70%

Compound: CCc1[nH]n(C2CCCC2)c2nc(-c3ccccc3OCCN3CCOCC3)nc(=O)c1-2 [11 (c), 1-cyclopentyl-3-ethyl-6-[2-[2-(4-morpholinyl)ethoxy]phenyl]pyrazolo[3,4-d]pyrimidin-4-one monohydrochloride]
- IC50: 2700 nM and 4500 nM

Compound: CCOC(=O)COc1ccccc1-c1nc2n(C3CCCC3)[nH]c(CC)c-2c(=O)n1 [12 (b), 1-cyclopentyl-3-ethyl-6-[2-(ethoxycarbonylmethoxy)phenyl]pyrazolo [3,4-d]pyrimidin-4-one]
- inhibition at 0.1 µM [1]: 30%
- inhibition at 1 µM [2]: 74%

Compound: CCCOc1ccccc1-c1nc2[nH]ncc2c(=O)[nH]1 [17 (c), 6-(2-propoxyphenyl)pyrazolo[3,4-d]pyrimidin-4-one 1/4 hydrate]
- inhibition at 0.1 µM [3]: 14%
- inhibition at 1 µM [3]: 19%
- inhibition at 10 µM [3]: 39%

Compound: CCc1[nH]n(C2CCCC2)c2nc(-c3ccc(OCCN4CCOCC4)cc3)nc(=O)c1-2 [18 (b), 1-cyclopentyl-3-ethyl-6-[4-[2-(4-morpholinyl)ethoxy]phenyl]pyrazolo[3,4-d]pyrimidin-4-one]
- IC50: 370 nM

Compound: CCOC(=O)COc1cccc(-c2nc3n(C4CCCC4)[nH]c(CC)c-3c(=O)n2)c1 [20 (b), 1-cyclopentyl-3-ethyl-6-[3-(ethoxycarbonylmethoxy)phenyl]pyrazolo[3,4-d]pyrimidin-4-one]
- IC50: 94 nM

Compound: CCc1nn(C2CCCC2)c2nc(-c3cccc(OCCN(C)C)c3)[nH]c(=O)c12 [23 (c)]
- IC50: 540 nM

Compound: CCc1[nH]n(C2CCCC2)c2nc(-c3ccccc3OCCCN3CCOCC3)nc(=O)c1-2 [26 (c), 1-cyclopentyl-3-ethyl-6-[2-[3-(4-morpholinyl)propoxy]phenyl]pyrazolo[3,4-d]pyrimidin-4-one]
- inhibition at 1 µM [2]: 28%

Compound: CCc1[nH]n(C2CCCC2)c2nc(-c3ccccc3-n3ccnc3)nc(=O)c1-2 [27 (c), 1-cyclopentyl-3-ethyl-6-[2-(1-imidazolyl)phenyl]pyrazolo[3,4-d]pyrimidin-4-one]
- inhibition at 0.1 µM [1]: 21%
- inhibition at 1 µM [2]: 73%

Compound: CCOc1cc(Cl)ccc1-c1nc2n(C3CCCC3)[nH]c(CC)c-2c(=O)n1 [29 (b), 1-cyclopentyl-3-ethyl-6-(4-chloro-2-ethoxyphenyl)pyrazolo[3,4-d]pyrimidin-4-one]
- IC50: 7.4 nM and 8.4 nM

Compound: CCc1[nH]n(C2CCCC2)c2nc(-c3ccccc3OCCOC)nc(=O)c1-2 [34 (b), 1-cyclopentyl-3-ethyl-6-[2-[2-(methoxy)ethoxy]phenyl]pyrazolo[3,4-d]pyrimidin-4-one]
- inhibition at 0.01 µM [4]: 28%
- inhibition at 0.1 µM [1]: 56%

Compound: CCc1[nH]n(C2CCCC2)c2nc(-c3ccc(OC)c(OCCN4CCOCC4)c3)nc(=O)c1-2 [35 (b), 1-cyclopentyl-3-ethyl-6-[4-methoxy-3-[2-(4-morpholinyl)ethoxy]phenyl]pyrazolo[3,4-d]pyrimidin-4-one]
- inhibition at 0.01 µM [4]: 13%
- inhibition at 0.1 µM [1]: 58%

Compound: CCOc1cc(N(CC)CC)ccc1-c1nc2n(C3CCCC3)[nH]c(CC)c-2c(=O)n1 [37 (b), 1-cyclopentyl-3-ethyl-6-[2-ethoxy-4-(diethylamino)phenyl]pyrazolo[3,4-d]pyrimidin-4-one]
- inhibition at 0.1 µM [1]: 31%
- inhibition at 1 µM [2]: 73%

Compound: CCc1[nH]n(C2CCCC2)c2nc(-c3cc(OCCN4CCOCC4)cc(OCCN4CCOCC4)c3)nc(=O)c1-2 [38 (b), 1-cyclopentyl-3-ethyl-6-[3,5-di[2-(4-morpholinyl)ethoxy]phenyl]pyrazolo[3,4-d]pyrimidin-4-one]
- inhibition at 0.01 µM [4]: 11%
- inhibition at 0.1 µM [1]: 63%
